Tests used:
[1] = system: macrophage LDL oxidation systems; experiment: macrophage LDL oxidation system, lipid hydroperoxides by HPLC chemiluminescence; type: cell-based; conditions: for antioxidative effect in combination with tocopherol: combined with tocopherol, in the course of time, after 24 hours
Text: In separate pre-tests, idebenone was used in the macrophage LDL oxidation systems as anti-oxidant by way of comparison to alpha-tocopherol, ascorbic acid, coenzyme Q-10 and glutathione. This system is suitable for the simulation of cell-promoted oxidation of lipids induced by lipoxygenase, such as for example occurs due to UV radiation. To determine the antioxidative effect of the individual substances, the amount of primary degradation products of lipid peroxidation, the lipid hydroperoxides, occurring in the course of time after 8 or 24 hours was determined by means of an HPLC chemiluminescence method (E. Wieland et al., Fresenius J. Anal. Chem., 343, 62-63 (1992)). […] The values given in the following tables relate to nmoles of measured lipid hydroperoxides per mg of LDL protein.

[2] = oral administration; cited from earlier work
tissue = conditions: in the tissue under pro-oxidative conditions; cited from earlier work
[3] = oxidation system A (Mk + LDL), 50 μmoles/litre antioxidant, 8 hours
[4] = oxidation system A (Mk + LDL), 50 μmoles/litre antioxidant, 24 hours
[5] = oxidation system B (Mk + LDL + 100 μmoles/liter α-tocopherol), 50 μmoles/litre further antioxidant, 8 hours
[6] = oxidation system B (Mk + LDL + 100 μmoles/liter α-tocopherol), 50 μmoles/litre further antioxidant, 24 hours
[7] = oxidation system A (Mk + LDL), 10 μmoles/litre antioxidant, 8 hours
[8] = oxidation system A (Mk + LDL), 10 μmoles/litre antioxidant, 24 hours
[9] = oxidation system B (Mk + LDL + 100 μmoles/liter α-tocopherol), 10 μmoles/litre further antioxidant, 8 hours
[10] = oxidation system B (Mk + LDL + 100 μmoles/liter α-tocopherol), 10 μmoles/litre further antioxidant, 24 hours

| SMILES | antioxidative effect in combination with tocopherol [1] | lipid hydroperoxides [1, 3] | lipid hydroperoxides [1, 4] | lipid hydroperoxides [1, 5] | lipid hydroperoxides [1, 6] | lipid hydroperoxides [1, 7] | lipid hydroperoxides [1, 8] | lipid hydroperoxides [1, 9] | lipid hydroperoxides [1, 10] | further results |
| --- | --- | --- | --- | --- | --- | --- | --- | --- | --- | --- |
| O=C1O[C@H]([C@@H](O)CO)C(O)=C1O [ascorbic acid] | significantly lower antioxidative effect | 0 nmoles per mg of LDL protein | 1.7 nmoles per mg of LDL protein | 1.7 nmoles per mg of LDL protein | 25.3 nmoles per mg of LDL protein |  |  |  |  |  |
| COC1=C(OC)C(=O)C(C/C=C(\C)CC/C=C(\C)CC/C=C(\C)CC/C=C(\C)CC/C=C(\C)CC/C=C(\C)CC/C=C(\C)CC/C=C(\C)CC/C=C(\C)CCC=C(C)C)=C(C)C1=O [coenzyme Q-10] |  |  |  |  |  | 69 nmoles per mg of LDL protein | 115.8 nmoles per mg of LDL protein | 26.8 nmoles per mg of LDL protein | 143.7 nmoles per mg of LDL protein |  |
| N[C@@H](CCC(=O)N[C@@H](CS)C(=O)NCC(=O)O)C(=O)O [glutathione] |  | 51.7 nmoles per mg of LDL protein | 119.0 nmoles per mg of LDL protein | 23.3 nmoles per mg of LDL protein | 129.8 nmoles per mg of LDL protein |  |  |  |  |  |
| COC1=C(OC)C(=O)C(CCCCCCCCCCO)=C(C)C1=O [idebenone, 6-(10-hydroxydecyl)-2,3-dimethoxy-5-methyl-1,4-benzoquinone] | reliably intercept the pro-oxidative effect of tocopherol oxidation products |  |  |  |  | 0 nmoles per mg of LDL protein | 0 nmoles per mg of LDL protein | 1.9 nmoles per mg of LDL protein | 2.6 nmoles per mg of LDL protein | toxic effects [2]: no toxic effects; antioxidative effect compared to ascorbic acid, alpha-tocopherol and glutathione ([1]; idebenone 10 μmoles/liter vs ascorbic acid 50, alpha-tocopherol 100, glutathione 50 μmoles/liter): clearly stronger antioxidative effect; protection against loss of alpha-tocopherol and coenzyme Q-10 (tissue): protection against the loss of alpha-tocopherol and coenzyme Q-10 |
| Cc1c(C)c2c(c(C)c1O)CC[C@@](C)(CCC[C@H](C)CCC[C@H](C)CCCC(C)C)O2 [α-tocopherol, alpha-tocopherol] |  |  |  |  |  |  |  |  |  | lipid hydroperoxides ([1]; oxidation system A (Mk + LDL), 100 μmoles/litre antioxidant, 8 hours): 32.8 nmoles per mg of LDL protein; lipid hydroperoxides ([1]; oxidation system A (Mk + LDL), 100 μmoles/litre antioxidant, 24 hours): 198.0 nmoles per mg of LDL protein |

— patent publication US6756045B1, “Topically applied idebenone-containing agent with protective and regenerative effect” (priority 1999, dated 2004)
